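48-hour exposure; five concentrations; linearly interpolated endpoints. Abbreviation: GI50, concentration required for 50% inhibition of growth.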 The source made the active and inactive calls. Rule as the data show it: active = GI50 up to about 1.1 µM and inactive = higher.
Tests used:
Assay in all cases: NCI anticancer screen, dose series, 48 h
[1] = system: KM-20L2
[2] = system: SNB-78
[3] = system: HOP-18
[4] = system: M19-MEL
[5] = system: XF498
[6] = system: RXF 631
[7] = system: LXFL 529
[8] = system: DLD-1
[9] = system: DMS-114

Measured: GI50

CC1(C)CC[C@]2(C(=O)O)CCC3(C)C(=CCC4[C@@]5(C)CC[C@H](OC6OCC(O)C(O)C6OC6OC(CO)C(O)C(O)C6O)C(C)(C)C5CC[C@]43C)C2C1 (some centres not stated)
inactive: [1] 2.02 µM | [2] 2.76 µM | [3] 1.95 µM | [4] 1.83 µM | [5] 1.94 µM | [6] 1.74 µM | [7] 1.9 µM | [8] 8.61 µM | [9] 2.04 µM

CC(=O)N1CCc2[nH]c3ccccc3c2CC1
inactive: [1] > 100 µM | [2] > 100 µM | [3] 86.9 µM | [4] > 100 µM | [5] > 100 µM | [6] > 100 µM | [7] > 100 µM | [8] > 100 µM | [9] > 100 µM

O=[N+]([O-])c1cccc(C2=NN(c3ccccc3)C3c4ccccc4OCC23)c1 (configuration not stated)
inactive: [1] > 100 µM | [2] > 100 µM | [3] > 100 µM | [4] > 100 µM | [5] > 100 µM | [6] > 100 µM | [7] > 100 µM | [8] > 100 µM | [9] > 100 µM
